The results in this text go back to paper PMC3849272, “Strong cellulase inhibitors from the hydrothermal pretreatment of wheat straw” (Biotechnology for Biofuels, 2013).

In one test the target is T1, TrCel7B (Trichoderma reesei, UniProt P07981).
T1 construct: gene egl1; native enzyme purified from culture filtrate of T. reesei QM 9414; secreted, signal peptide removed
T1 sequence (P07981 23-459): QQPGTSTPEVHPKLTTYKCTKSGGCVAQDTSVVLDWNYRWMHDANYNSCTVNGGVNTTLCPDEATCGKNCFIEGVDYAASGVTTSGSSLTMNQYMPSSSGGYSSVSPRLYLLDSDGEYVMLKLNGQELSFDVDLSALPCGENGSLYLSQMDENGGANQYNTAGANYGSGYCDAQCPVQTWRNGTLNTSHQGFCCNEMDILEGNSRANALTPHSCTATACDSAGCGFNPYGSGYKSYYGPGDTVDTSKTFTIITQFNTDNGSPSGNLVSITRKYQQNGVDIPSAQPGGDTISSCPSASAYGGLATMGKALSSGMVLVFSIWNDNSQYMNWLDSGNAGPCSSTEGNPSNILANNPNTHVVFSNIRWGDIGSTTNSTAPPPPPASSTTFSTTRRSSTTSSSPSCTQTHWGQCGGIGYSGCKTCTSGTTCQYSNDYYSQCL
In words: inhibition of 4-methylumbelliferyl-beta-lactoside hydrolysis, fluorescence, initial rates. In kind it is biochemical. The conditions noted are these: 20 μM MUL, 10 nM enzyme, 50 mM sodium acetate pH 5.0, BSA 0.1 g/l, 35°C.

A further test deals with T2, TrCel7A (Trichoderma reesei, UniProt P62694).
T2 construct: gene cbh1; native enzyme purified from culture filtrate of T. reesei QM 9414; secreted, signal peptide removed; about 50 kDa
T2 sequence (P62694 18-513): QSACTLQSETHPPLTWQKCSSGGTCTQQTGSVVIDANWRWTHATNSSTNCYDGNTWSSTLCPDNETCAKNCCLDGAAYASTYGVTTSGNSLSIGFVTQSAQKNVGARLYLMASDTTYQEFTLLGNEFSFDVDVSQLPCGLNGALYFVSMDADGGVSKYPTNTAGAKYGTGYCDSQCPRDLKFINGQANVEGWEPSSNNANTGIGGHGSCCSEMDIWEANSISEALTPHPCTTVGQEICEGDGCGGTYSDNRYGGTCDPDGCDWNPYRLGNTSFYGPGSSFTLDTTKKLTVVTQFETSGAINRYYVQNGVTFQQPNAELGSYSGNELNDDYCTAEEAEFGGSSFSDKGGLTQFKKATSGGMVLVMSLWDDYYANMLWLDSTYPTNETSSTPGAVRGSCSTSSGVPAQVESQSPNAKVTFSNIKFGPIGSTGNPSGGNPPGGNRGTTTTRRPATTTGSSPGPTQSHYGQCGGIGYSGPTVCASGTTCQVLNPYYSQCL
Described as above. Particulars: 5 μM MUL, 10 nM enzyme, 50 mM sodium acetate pH 5.0, BSA 0.1 g/l, 35°C. In kind it is biochemical.

For `OC[C@H]1O[C@@H](O[C@H]2[C@H](O)[C@@H](O)C(O)O[C@@H]2CO)[C@H](O)[C@@H](O)[C@@H]1O` (some centres unmarked) [cellobiose], the values for the half-inhibitory concentration (IC50) at TrCel7B and at TrCel7A were 8.9 ± 0.4 mM and 0.036 ± 0.006 mM, respectively.

In general, IC50 refers to the concentration that gives 50% inhibition. Low readings indicate greater potency, high ones weaker potency.
